Experimental data taken from ChEMBL document CHEMBL1671626, “In vitro profiling of ceftaroline against a collection of recent bacterial clinical isolates from across the United States” (2008).
Values after ≈ are worked out from the molar mass of the structure shown.

Legend:
Assay type in all cases: functional
Streptococcus agalactiae [1] = assay: Antibacterial activity against erythromycin-nonsusceptible Streptococcus agalactiae by CLSI M7-A7 broth microdilution method
Streptococcus pyogenes [2] = assay: Antibacterial activity against erythromycin-nonsusceptible Streptococcus pyogenes by CLSI M7-A7 broth microdilution method
Staphylococcus aureus [3] = assay: Antibacterial activity against coagulase-negative and oxacillin-resistant Staphylococcus aureus assessed as resistant isolates by CLSI M7-A7 broth microdilution method
Enterococcus faecium [4] = assay: Antibacterial activity against vancomycin-resistant Enterococcus faecium assessed as resistant isolates by CLSI M7-A7 broth microdilution method
Enterococcus faecalis [5] = assay: Antibacterial activity against vancomycin-resistant Enterococcus faecalis by CLSI M7-A7 broth microdilution method
Enterococcus faecalis [6] = assay: Antibacterial activity against vancomycin-resistant Enterococcus faecalis assessed as resistant isolates by CLSI M7-A7 broth microdilution method
Staphylococcus aureus [7] = assay: Antibacterial activity against coagulase-negative and oxacillin-susceptible Staphylococcus aureus assessed as resistant isolates by CLSI M7-A7 broth microdilution method
Enterococcus faecium [8] = assay: Antibacterial activity against vancomycin-resistant Enterococcus faecium by CLSI M7-A7 broth microdilution method
Moraxella catarrhalis = assay: Antibacterial activity against beta lactamase-positive Moraxella catarrhalis by CLSI M7-A7 broth microdilution method
Streptococcus viridans [9] = assay: Antibacterial activity against penicillin-nonsusceptible Streptococcus viridans by CLSI M7-A7 broth microdilution method
Streptococcus pyogenes [10] = assay: Antibacterial activity against erythromycin-susceptible Streptococcus pyogenes assessed as susceptible isolates by CLSI M7-A7 broth microdilution method
Streptococcus agalactiae [11] = assay: Antibacterial activity against erythromycin-susceptible Streptococcus agalactiae by CLSI M7-A7 broth microdilution method
Pasteurella multocida = assay: Antibacterial activity against Pasteurella multocida by CLSI M7-A7 broth microdilution method
Streptococcus pyogenes [12] = assay: Antibacterial activity against erythromycin-susceptible Streptococcus pyogenes by CLSI M7-A7 broth microdilution method
Staphylococcus aureus [13] = assay: Antibacterial activity against coagulase-negative and oxacillin-resistant Staphylococcus aureus assessed as susceptible isolates by CLSI M7-A7 broth microdilution method
Streptococcus agalactiae [14] = assay: Antibacterial activity against erythromycin-susceptible Streptococcus agalactiae assessed as susceptible isolates by CLSI M7-A7 broth microdilution method
Staphylococcus aureus [15] = assay: Antibacterial activity against coagulase-negative and oxacillin-susceptible Staphylococcus aureus by CLSI M7-A7 broth microdilution method
Streptococcus viridans [16] = assay: Antibacterial activity against penicillin-susceptible Streptococcus viridans assessed as susceptible isolates by CLSI M7-A7 broth microdilution method
Staphylococcus aureus [17] = assay: Antibacterial activity against coagulase-negative and oxacillin-susceptible Staphylococcus aureus assessed as susceptible isolates by CLSI M7-A7 broth microdilution method
Staphylococcus aureus [18] = assay: Antibacterial activity against methicillin-susceptible Staphylococcus aureus assessed as resistant isolates by CLSI M7-A7 broth microdilution method
Streptococcus viridans [19] = assay: Antibacterial activity against penicillin-nonsusceptible Streptococcus viridans assessed as resistant isolates by CLSI M7-A7 broth microdilution method
Staphylococcus aureus [20] = assay: Antibacterial activity against methicillin-susceptible Staphylococcus aureus assessed as susceptible isolates by CLSI M7-A7 broth microdilution method
Staphylococcus aureus [21] = assay: Antibacterial activity against methicillin-resistant Staphylococcus aureus assessed as resistant isolates by CLSI M7-A7 broth microdilution method
Staphylococcus aureus [22] = assay: Antibacterial activity against methicillin-resistant Staphylococcus aureus by CLSI M7-A7 broth microdilution method
Streptococcus agalactiae [23] = assay: Antibacterial activity against erythromycin-nonsusceptible Streptococcus agalactiae assessed as susceptible isolates by CLSI M7-A7 broth microdilution method
Streptococcus viridans [24] = assay: Antibacterial activity against penicillin-susceptible Streptococcus viridans by CLSI M7-A7 broth microdilution method
Streptococcus pyogenes [25] = assay: Antibacterial activity against erythromycin-nonsusceptible Streptococcus pyogenes assessed as susceptible isolates by CLSI M7-A7 broth microdilution method
Staphylococcus aureus [26] = assay: Antibacterial activity against coagulase-negative and oxacillin-resistant Staphylococcus aureus by CLSI M7-A7 broth microdilution method
Streptococcus viridans [27] = assay: Antibacterial activity against penicillin-nonsusceptible Streptococcus viridans assessed as susceptible isolates by CLSI M7-A7 broth microdilution method
Enterococcus faecalis [28] = assay: Antibacterial activity against vancomycin-susceptible Enterococcus faecalis assessed as resistant isolates by CLSI M7-A7 broth microdilution method
Staphylococcus aureus [29] = assay: Antibacterial activity against methicillin-susceptible Staphylococcus aureus by CLSI M7-A7 broth microdilution method
Staphylococcus aureus [30] = assay: Antibacterial activity against methicillin-resistant Staphylococcus aureus assessed as susceptible isolates by CLSI M7-A7 broth microdilution method
Enterococcus faecium [31] = assay: Antibacterial activity against vancomycin-resistant Enterococcus faecium assessed as susceptible isolates by CLSI M7-A7 broth microdilution method
Enterococcus faecalis [32] = assay: Antibacterial activity against vancomycin-susceptible Enterococcus faecalis assessed as susceptible isolates by CLSI M7-A7 broth microdilution method
Enterococcus faecalis [33] = assay: Antibacterial activity against vancomycin-susceptible Enterococcus faecalis by CLSI M7-A7 broth microdilution method
Enterococcus faecalis [34] = assay: Antibacterial activity against vancomycin-resistant Enterococcus faecalis assessed as susceptible isolates by CLSI M7-A7 broth microdilution method
Streptococcus pneumoniae [35] = assay: Antibacterial activity against penicillin-susceptible Streptococcus pneumoniae by CLSI M7-A7 broth microdilution method
Streptococcus pneumoniae [36] = assay: Antibacterial activity against penicillin-susceptible Streptococcus pneumoniae assessed as susceptible isolates by CLSI M7-A7 broth microdilution method
Streptococcus pneumoniae [37] = assay: Antibacterial activity against penicillin-resistant Streptococcus pneumoniae by CLSI M7-A7 broth microdilution method
Streptococcus pneumoniae [38] = assay: Antibacterial activity against penicillin-resistant Streptococcus pneumoniae assessed as susceptible isolates by CLSI M7-A7 broth microdilution method

CC1(C)S[C@@H]2[C@H](NC(=O)Cc3ccccc3)C(=O)N2[C@H]1C(=O)O [PENICILLIN G]
MIC (Streptococcus agalactiae [1]): ≤ 0.12 µg/mL | MIC50 (Streptococcus agalactiae [1]): ≤ 0.12 µg/mL | MIC90 (Streptococcus agalactiae [1]): ≤ 0.12 µg/mL | MIC (Streptococcus pyogenes [2]): ≤ 0.12 µg/mL | MIC50 (Streptococcus pyogenes [2]): ≤ 0.12 µg/mL | MIC90 (Streptococcus pyogenes [2]): ≤ 0.12 µg/mL | Activity (Staphylococcus aureus [3]): 97.7% | Activity (Enterococcus faecium [4]): 100% | MIC50 (Enterococcus faecalis [5]): 2 µg/mL (≈ 5.98 µM) | MIC90 (Enterococcus faecalis [5]): 4 µg/mL (≈ 12 µM) | Activity (Enterococcus faecalis [6]): 0% | Activity (Staphylococcus aureus [7]): 67.7% | MIC (Enterococcus faecium [8]): > 16 µg/mL | MIC50 (Enterococcus faecium [8]): > 16 µg/mL | MIC90 (Enterococcus faecium [8]): > 16 µg/mL | MIC50 (Moraxella catarrhalis): 4 µg/mL (≈ 12 µM) | MIC90 (Moraxella catarrhalis): 16 µg/mL (≈ 47.8 µM) | MIC50 (Streptococcus viridans [9]): 0.5 µg/mL (≈ 1.5 µM) | MIC90 (Streptococcus viridans [9]): 8 µg/mL (≈ 23.9 µM) | Activity (Streptococcus pyogenes [10]): 98.9% | MIC (Streptococcus agalactiae [11]): ≤ 0.12 µg/mL | MIC50 (Streptococcus agalactiae [11]): ≤ 0.12 µg/mL | MIC90 (Streptococcus agalactiae [11]): ≤ 0.12 µg/mL | MIC50 (Pasteurella multocida): ≤ 0.12 µg/mL | MIC90 (Pasteurella multocida): 0.25 µg/mL (≈ 0.748 µM) | MIC (Streptococcus pyogenes [12]): ≤ 0.12 µg/mL | MIC50 (Streptococcus pyogenes [12]): ≤ 0.12 µg/mL | MIC90 (Streptococcus pyogenes [12]): ≤ 0.12 µg/mL | Activity (Staphylococcus aureus [13]): 2.3% | Activity (Streptococcus agalactiae [14]): 100% | MIC50 (Staphylococcus aureus [15]): 0.5 µg/mL (≈ 1.5 µM) | MIC90 (Staphylococcus aureus [15]): 2 µg/mL (≈ 5.98 µM) | Activity (Streptococcus viridans [16]): 100% | Activity (Staphylococcus aureus [17]): 32.3% | Activity (Staphylococcus aureus [18]): 83.3% | Activity (Streptococcus viridans [19]): 28.6% | Activity (Staphylococcus aureus [20]): 16.7% | Activity (Staphylococcus aureus [21]): 99.5% | MIC50 (Staphylococcus aureus [22]): > 16 µg/mL | Activity (Streptococcus agalactiae [23]): 95.2% | MIC (Streptococcus viridans [24]): ≤ 0.12 µg/mL | MIC50 (Streptococcus viridans [24]): ≤ 0.12 µg/mL | MIC90 (Streptococcus viridans [24]): ≤ 0.12 µg/mL | Activity (Streptococcus pyogenes [25]): 100% | MIC50 (Staphylococcus aureus [26]): 8 µg/mL (≈ 23.9 µM) | Activity (Streptococcus viridans [27]): 0% | Activity (Enterococcus faecalis [28]): 0% | MIC50 (Staphylococcus aureus [29]): 4 µg/mL (≈ 12 µM) | MIC90 (Staphylococcus aureus [29]): > 16 µg/mL | Activity (Staphylococcus aureus [30]): 0.5% | Activity (Enterococcus faecium [31]): 0% | Activity (Enterococcus faecalis [32]): 100% | MIC50 (Enterococcus faecalis [33]): 2 µg/mL (≈ 5.98 µM) | MIC90 (Enterococcus faecalis [33]): 4 µg/mL (≈ 12 µM)

CN[C@H](CC(C)C)C(=O)N[C@H]1C(=O)N[C@@H](CC(N)=O)C(=O)N[C@H]2C(=O)N[C@H]3C(=O)N[C@H](C(=O)N[C@H](C(=O)O)c4cc(O)cc(O)c4-c4cc3ccc4O)[C@H](O)c3ccc(c(Cl)c3)Oc3cc2cc(c3O[C@@H]2O[C@H](CO)[C@@H](O)[C@H](O)[C@H]2O[C@H]2C[C@](C)(N)[C@H](O)[C@H](C)O2)Oc2ccc(cc2Cl)[C@H]1O [VANCOMYCIN]
MIC50 (Streptococcus agalactiae [1]): 0.5 µg/mL (≈ 0.345 µM) | MIC90 (Streptococcus agalactiae [1]): 0.5 µg/mL (≈ 0.345 µM) | MIC (Streptococcus pyogenes [2]): 0.25 µg/mL (≈ 0.173 µM) | MIC50 (Streptococcus pyogenes [2]): 0.25 µg/mL (≈ 0.173 µM) | MIC90 (Streptococcus pyogenes [2]): 0.5 µg/mL (≈ 0.345 µM) | Activity (Staphylococcus aureus [3]): 0% | Activity (Enterococcus faecium [4]): 100% | MIC (Enterococcus faecalis [5]): > 16 µg/mL | MIC50 (Enterococcus faecalis [5]): > 16 µg/mL | MIC90 (Enterococcus faecalis [5]): > 16 µg/mL | Activity (Enterococcus faecalis [6]): 100% | Activity (Staphylococcus aureus [7]): 0% | Activity (Enterococcus faecalis [34]): 0% | MIC (Enterococcus faecium [8]): > 16 µg/mL | MIC50 (Enterococcus faecium [8]): > 16 µg/mL | MIC90 (Enterococcus faecium [8]): > 16 µg/mL | MIC (Streptococcus viridans [9]): 0.5 µg/mL (≈ 0.345 µM) | MIC50 (Streptococcus viridans [9]): 0.5 µg/mL (≈ 0.345 µM) | MIC90 (Streptococcus viridans [9]): 1 µg/mL (≈ 0.69 µM) | Activity (Streptococcus pyogenes [10]): 100% | MIC50 (Streptococcus agalactiae [11]): 0.5 µg/mL (≈ 0.345 µM) | MIC90 (Streptococcus agalactiae [11]): 0.5 µg/mL (≈ 0.345 µM) | MIC (Streptococcus pyogenes [12]): 0.25 µg/mL (≈ 0.173 µM) | MIC50 (Streptococcus pyogenes [12]): 0.25 µg/mL (≈ 0.173 µM) | MIC90 (Streptococcus pyogenes [12]): 0.5 µg/mL (≈ 0.345 µM) | Activity (Streptococcus agalactiae [14]): 100% | MIC50 (Staphylococcus aureus [15]): 1 µg/mL (≈ 0.69 µM) | MIC90 (Staphylococcus aureus [15]): 2 µg/mL (≈ 1.38 µM) | Activity (Streptococcus viridans [16]): 100% | MIC50 (Streptococcus pneumoniae [35]): 0.25 µg/mL (≈ 0.173 µM) | MIC90 (Streptococcus pneumoniae [35]): 0.5 µg/mL (≈ 0.345 µM) | Activity (Staphylococcus aureus [18]): 0% | Activity (Streptococcus pneumoniae [36]): 100% | Activity (Staphylococcus aureus [21]): 0.3% | MIC50 (Staphylococcus aureus [22]): 1 µg/mL (≈ 0.69 µM) | MIC90 (Staphylococcus aureus [22]): 1 µg/mL (≈ 0.69 µM) | Activity (Streptococcus agalactiae [23]): 100% | MIC50 (Streptococcus viridans [24]): 0.5 µg/mL (≈ 0.345 µM) | MIC90 (Streptococcus viridans [24]): 0.5 µg/mL (≈ 0.345 µM) | Activity (Streptococcus pyogenes [25]): 100% | MIC50 (Staphylococcus aureus [26]): 1 µg/mL (≈ 0.69 µM) | MIC90 (Staphylococcus aureus [26]): 2 µg/mL (≈ 1.38 µM) | Activity (Streptococcus viridans [27]): 92.9% | Activity (Enterococcus faecalis [28]): 0% | MIC50 (Streptococcus pneumoniae [37]): 0.25 µg/mL (≈ 0.173 µM) | MIC90 (Streptococcus pneumoniae [37]): 0.5 µg/mL (≈ 0.345 µM) | MIC50 (Staphylococcus aureus [29]): 0.5 µg/mL (≈ 0.345 µM) | MIC90 (Staphylococcus aureus [29]): 1 µg/mL (≈ 0.69 µM) | Activity (Streptococcus pneumoniae [38]): 100% | Activity (Enterococcus faecium [31]): 0% | Activity (Enterococcus faecalis [32]): 100% | MIC50 (Enterococcus faecalis [33]): 1 µg/mL (≈ 0.69 µM) | MIC90 (Enterococcus faecalis [33]): 2 µg/mL (≈ 1.38 µM)
